Measurements: ChEMBL document CHEMBL1132761, “Novel Dmt-Tic dipeptide analogues as selective delta-opioid receptor antagonists” (Bioorg Med Chem Lett, 2000)
Non-standard residues stand in square brackets, D forms with d. Residues, ends and D or L forms follow the SMILES beside them. Dmt = Cc1cc(O)cc(C)c1C[C@H](N)C(=O)O; Tic = O=C(O)[C@@H]1Cc2ccccc2CN1

What was measured:
[1] = target: T1, Delta-type opioid receptor (Homo sapiens, UniProt P41143); experiment: Compound was evaluated for binding affinity towards Opioid receptor delta 1 by displacing 125 I-deltorphin II
T1 sequence (P41143 whole entry): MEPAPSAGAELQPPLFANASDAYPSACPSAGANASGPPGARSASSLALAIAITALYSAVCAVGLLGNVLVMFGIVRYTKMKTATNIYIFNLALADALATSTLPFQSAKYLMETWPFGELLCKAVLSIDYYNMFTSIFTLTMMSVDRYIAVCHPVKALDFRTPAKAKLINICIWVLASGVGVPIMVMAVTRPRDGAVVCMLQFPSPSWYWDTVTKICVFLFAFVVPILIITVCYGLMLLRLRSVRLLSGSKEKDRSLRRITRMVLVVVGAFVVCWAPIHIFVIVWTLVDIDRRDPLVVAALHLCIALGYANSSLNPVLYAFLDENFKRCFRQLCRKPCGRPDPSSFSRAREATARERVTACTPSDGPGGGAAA

[2] = target: Mu-type opioid receptor (Homo sapiens, UniProt P35372); experiment: Compound was evaluated for binding affinity towards Opioid receptor mu 1 by displacing 125 I-FK-33824
Mu-type opioid receptor, sequence (P35372 whole entry): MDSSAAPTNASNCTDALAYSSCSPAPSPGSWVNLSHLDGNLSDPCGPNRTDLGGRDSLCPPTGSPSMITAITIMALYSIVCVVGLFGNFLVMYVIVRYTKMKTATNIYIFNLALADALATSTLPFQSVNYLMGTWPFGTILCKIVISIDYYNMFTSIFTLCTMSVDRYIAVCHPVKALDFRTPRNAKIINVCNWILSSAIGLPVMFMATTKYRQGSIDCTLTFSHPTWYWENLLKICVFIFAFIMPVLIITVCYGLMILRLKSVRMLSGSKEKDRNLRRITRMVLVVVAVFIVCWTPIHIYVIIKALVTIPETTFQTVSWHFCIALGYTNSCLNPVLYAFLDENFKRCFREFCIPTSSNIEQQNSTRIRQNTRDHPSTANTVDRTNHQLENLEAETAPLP

[3] = target: Kappa-type opioid receptor (Homo sapiens, UniProt P41145); experiment: Compound was evaluated for binding affinity towards Opioid receptor kappa 1 by displacing 125 I-DPDYN
Kappa-type opioid receptor, sequence (P41145 whole entry): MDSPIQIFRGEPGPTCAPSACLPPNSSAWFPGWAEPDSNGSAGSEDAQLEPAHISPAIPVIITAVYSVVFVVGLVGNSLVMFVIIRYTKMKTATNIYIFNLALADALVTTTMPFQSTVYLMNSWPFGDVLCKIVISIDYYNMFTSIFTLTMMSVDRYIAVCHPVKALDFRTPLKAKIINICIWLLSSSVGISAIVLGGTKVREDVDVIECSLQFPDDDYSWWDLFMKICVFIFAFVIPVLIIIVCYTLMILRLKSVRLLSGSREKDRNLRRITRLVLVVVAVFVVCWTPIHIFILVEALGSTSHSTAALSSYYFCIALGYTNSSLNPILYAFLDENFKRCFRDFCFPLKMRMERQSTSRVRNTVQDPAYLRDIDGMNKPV

[4] = target: Opioid receptors; mu & delta (Homo sapiens) (UniProt P41143+P35372); experiment: Ratio of binding affinity of compound to mu receptor compared to that of delta receptor (Mu/Delta); type: protein assay
Opioid receptors; mu & delta (Homo sapiens), sequence (P35372 whole entry, looked up): as the sequence (P35372 whole entry) above
Opioid receptors; mu & delta (Homo sapiens), sequence (P41143 whole entry, looked up): as the sequence (P41143 whole entry) above

[5] = target: T1, Delta-type opioid receptor; experiment: Compound was tested for its ability to block the effect of selective delta opioid agonist SNC-80 in the functional assay
[6] = target: T1, Delta-type opioid receptor; experiment: Effective concentration for agonistic activity towards delta opioid receptor was determined by [35S]GTP-gamma-S functional assay

Row | SMILES | IC50 [1] | IC50 [2] | IC50 [3] | Ratio [4] | Ke [5] | EC50 [6]
1 | Cc1cc(O)cc(C)c1C[C@@H](N)C(=O)N1Cc2c(cc(Br)c(O)c2Br)C[C@H]1C(=O)O | > 10000 nM | 8130 nM | – | – | – | –
2 | Cc1cc(O)cc(C)c1C[C@H](N)C(=O)N1Cc2c(cc(Br)c(O)c2Br)C[C@H]1C(=O)O | 1080 nM | 1240 nM | > 10000 nM | 1.1 | – | –
3 | COc1cc2c(cc1-c1ccccc1)C[C@@H](C(=O)O)N(C(=O)C(N)Cc1c(C)cc(O)cc1C)C2 (stereo partly drawn) | 2540 nM | > 10000 nM | > 10000 nM | – | – | –
4 | Cc1cc(O)cc(C)c1CC(N)C(=O)N1Cc2cc(-c3cc4ccccc4o3)ccc2C[C@H]1C(=O)O (stereo partly drawn) | 52.7 nM | 2440 nM | > 10000 nM | – | – | –
5 | Cc1cc(O)cc(C)c1CC(N)C(=O)N1Cc2cc(-c3ccsc3)ccc2C[C@H]1C(=O)O (stereo partly drawn) | 13.5 nM | 142 nM | 2730 nM | 10.5 | – | –
6 | COc1ccc(-c2ccc3c(c2)CN(C(=O)[C@@H](N)Cc2c(C)cc(O)cc2C)[C@H](C(=O)O)C3)cc1 | 5.8 nM | 1140 nM | > 10000 nM | 211 | – | –
7 | COc1cc2c(cc1-c1ccc(F)cc1)C[C@@H](C(=O)O)N(C(=O)C(N)Cc1c(C)cc(O)cc1C)C2 (stereo partly drawn) | 1160 nM | 7220 nM | > 10000 nM | 6.2 | – | –
8 | Cc1cc(O)cc(C)c1C[C@H](N)C(=O)N1Cc2ccccc2C[C@H]1C(=O)O (H-[Dmt]-[Tic]-OH) | 1.6 nM | 894 nM | 37500 nM | 558 | 5.3 nM | –
9 | COc1ccc2c(c1)CN(C(=O)[C@@H](N)Cc1c(C)cc(O)cc1C)[C@H](C(=O)O)C2 | 12.1 nM | 2870 nM | 9440 nM | 237 | – | –
10 | Cc1cc(O)cc(C)c1C[C@H](N)C(=O)N1Cc2cc(-c3ccccc3)ccc2C[C@H]1C(=O)O | 13.2 nM | 635 nM | 5740 nM | 48.1 | – | –
11 | COc1c(Br)cc2c(c1Br)CN(C(=O)[C@@H](N)Cc1c(C)cc(O)cc1C)[C@H](C(=O)O)C2 | 2.5 nM | 1670 nM | > 10000 nM | 505 | – | 28 nM
12 | Cc1cc(O)cc(C)c1C[C@@H](N)C(=O)N1Cc2cc(-c3ccc(F)cc3)ccc2C[C@H]1C(=O)O | 81.7 nM | – | > 10000 nM | – | – | –
13 | Cc1cc(O)cc(C)c1C[C@H](N)C(=O)N1Cc2cc(-c3ccc(F)cc3)ccc2C[C@H]1C(=O)O | 3.8 nM | 587 nM | 7560 nM | 155 | 11.5 nM | –
14 | COc1ccc2c(c1)CN(C(=O)C(N)Cc1c(C)cc(O)cc1C)[C@H](C(=O)O)C2 (stereo partly drawn) | 10.9 nM | 2280 nM | 9000 nM | 211 | – | –
15 | Cc1cc(O)cc(C)c1CC(N)C(=O)N1Cc2cc(O)ccc2C[C@H]1C(=O)O (stereo partly drawn) | 236 nM | 2160 nM | 9290 nM | 9.2 | – | –
16 | Cc1cc(O)cc(C)c1C[C@@H](N)C(=O)N1Cc2cc(-c3ccccc3)ccc2C[C@H]1C(=O)O | 122 nM | 1940 nM | > 10000 nM | 15.9 | – | –
17 | COc1c(Br)cc2c(c1Br)CN(C(=O)[C@H](N)Cc1c(C)cc(O)cc1C)[C@H](C(=O)O)C2 | 571 nM | 8240 nM | – | 14.4 | – | –
18 | COc1ccc(-c2cc3c(cc2OC)CN(C(=O)C(N)Cc2c(C)cc(O)cc2C)[C@H](C(=O)O)C3)cc1 (stereo partly drawn) | 1520 nM | 4640 nM | > 10000 nM | 3.1 | – | –
19 | COc1ccc(-c2ccc3c(c2)CN(C(=O)C(N)Cc2c(C)cc(O)cc2C)[C@H](C(=O)O)C3)cc1 (stereo partly drawn) | 4.9 nM | 2650 nM | > 10000 nM | 546 | 38.6 nM | –
